Assay results from article PMC6943726, “Discovery of 8-Amino-Substituted 2-Phenyl-2,7-Naphthyridinone Derivatives as New c-Kit/VEGFR-2 Kinase Inhibitors” (Molecules, 2019).

Key:
Format in all cases: biochemical
[1] = target: T1, MET (Homo sapiens, UniProt P08581); test: HTRF enzyme assay with recombinant MET kinase domain; conditions: purified recombinant MET kinase domain, read-out: Inhibitory Activity, IC50, MET
T1 construct: was evaluated using an enzyme assay with a recombinant kinase domain; purchased Invitrogen (Carlsbad, CA, US)
Method: (§1) The ability of the synthesized compounds to inhibit MET, c-Kit, and VEGFR-2 activities was evaluated using an enzyme assay with a recombinant kinase domain [29]. Based on the structure activity relationship (SAR) of MET inhibitors, we proposed that the removal of the key diaryl ether fragments in compound 3 would result in a loss of MET activity.
(§2) The ability of compounds to inhibit the activity of three kinases (MET, c-Kit, and VEGFR-2) was tested in vitro [30]. Enzyme assays were run in homogeneous time-resolved fluorescence (HTRF) format in 384-well microtiter plates using purified kinases purchased from Invitrogen (Carlsbad, CA, US). The HTRF KinEASE TK kit (contains substrate-biotin, antibody-cryptate, streptavidin-XL665, 5×enzymatic buffer, and detection buffer) was purchased from Cisbio (Codolet, France), and the kinase assays were performed according to the manufacturer’s instructions. After the kinases and the compounds incubated at 25~30 °C for 5 min, the reactions were initiated by the addition of 2 μL of mixed substrate solution (mixed solution of ATP (Sigma, Shanghai, China) and substrate-biotin). The final concentrations of kinases were at EC80 and the total reaction volume was 8 μL. Plates were incubated at 30 °C for 30~60 min, then the reactions were quenched by the addition 8 μL mixed detection solution (mixed solution of antibody-cryptate and streptavidin-XL665 in detection buffer). The fluorescence excitation wavelength was […]. The fluorescence at 665 nm (acceptor emission wavelength) and 620 nm (donor emission wavelength) was measured with a PHERAstar FS plate reader (BMG, LABTECH, Ortenberg, Germany) using a time delay of 50 μs. All kinase assays were conducted using ATP concentrations below the enzyme Kmapp and kinase-specific biotinylated substrate peptides.
(§3) The data for dose responses were plotted as percentage of inhibition calculated with the data reduction formula 100 × [1 − (U1 − C2)/(C1 − C2)] versus concentration of compound, where U is the emission ratio of 665 nm and 620 nm of test sample, C1 is the average value obtained for solvent control (2% DMSO), and C2 is the average value obtained for no reaction control (no kinase sample). Inhibition curves were generated by plotting percentage of control activity versus log10 of the concentration of each […]. The IC50 values were calculated by nonlinear regression with Graphpad Prism 5 (GraphPad Software, San Diego, CA).

[2] = target: T2, VEGFR-2 (Homo sapiens, UniProt P35968); test: HTRF enzyme assay with recombinant VEGFR-2 kinase domain; conditions: for IC50: purified recombinant VEGFR-2 kinase domain, HTRF, read-out: Inhibitory Activity, IC50, VEGFR-2
T2 construct: was evaluated using an enzyme assay with a recombinant kinase domain; purchased Invitrogen (Carlsbad, CA, US)
Method: as §1, §2, §3

[3] = target: T3, c-Kit (Homo sapiens, UniProt P10721); test: HTRF enzyme assay with recombinant c-Kit kinase domain; conditions: for IC50: purified recombinant c-Kit kinase domain, HTRF, read-out: Inhibitory Activity, IC50, c-Kit
T3 construct: was evaluated using an enzyme assay with a recombinant kinase domain; purchased Invitrogen (Carlsbad, CA, US)
Method: as §1, §2, §3

[4] = ratio of IC50 values vs compound 3

T3 sequence (P10721 589-937 limits assumed): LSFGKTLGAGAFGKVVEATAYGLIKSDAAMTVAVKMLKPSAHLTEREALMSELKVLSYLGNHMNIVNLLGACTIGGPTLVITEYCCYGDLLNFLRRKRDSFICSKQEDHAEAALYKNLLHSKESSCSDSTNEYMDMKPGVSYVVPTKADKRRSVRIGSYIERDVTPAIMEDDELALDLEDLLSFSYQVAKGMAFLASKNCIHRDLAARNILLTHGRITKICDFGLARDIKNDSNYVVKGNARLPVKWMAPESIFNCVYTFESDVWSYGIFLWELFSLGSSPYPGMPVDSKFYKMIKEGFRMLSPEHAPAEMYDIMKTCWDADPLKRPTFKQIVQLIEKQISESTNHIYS
T1 sequence (P08581 1078-1345 limits assumed): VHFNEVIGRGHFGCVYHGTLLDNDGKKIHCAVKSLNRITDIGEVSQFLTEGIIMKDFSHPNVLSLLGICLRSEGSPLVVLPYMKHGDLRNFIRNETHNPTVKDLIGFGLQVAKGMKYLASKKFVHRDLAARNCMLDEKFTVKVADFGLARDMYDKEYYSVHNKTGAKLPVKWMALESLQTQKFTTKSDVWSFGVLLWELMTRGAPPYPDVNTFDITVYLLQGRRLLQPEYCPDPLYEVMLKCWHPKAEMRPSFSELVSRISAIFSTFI
T2 sequence (P35968 834-1162 limits assumed): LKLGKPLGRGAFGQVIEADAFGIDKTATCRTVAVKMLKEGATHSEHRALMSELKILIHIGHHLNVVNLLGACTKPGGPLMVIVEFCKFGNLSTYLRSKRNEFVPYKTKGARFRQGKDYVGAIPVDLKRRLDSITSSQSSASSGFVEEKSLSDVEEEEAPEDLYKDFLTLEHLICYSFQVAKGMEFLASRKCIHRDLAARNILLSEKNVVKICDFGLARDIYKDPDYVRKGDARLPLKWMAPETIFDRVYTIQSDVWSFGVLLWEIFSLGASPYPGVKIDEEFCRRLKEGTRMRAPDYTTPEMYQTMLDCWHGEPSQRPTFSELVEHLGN

Cc1cc2ccnc(NCc3cccnc3)c2c(=O)n1-c1ccccc1 [Compound 10f, 3-methyl-2-phenyl-8-((pyridin-3-ylmethyl)amino)-2,7-naphthyridin-1(2H)-one]
IC50 [1]: > 5 µM
IC50 [2]: > 5 µM
IC50 [3]: > 5 µM

Cc1cc2ccnc(NCc3ccnc4ccccc34)c2c(=O)n1-c1ccc(OC(F)(F)F)cc1 [Compound 10r, 3-methyl-8-((quinolin-4-ylmethyl)amino)-2-(4-(trifluoromethoxy)phenyl)-2,7-naphthyridin-1(2H)-one]
IC50 [1]: > 5 µM
IC50 [2]: 0.0317 µM
VEGFR-2 potency, fold more potent than compound 3 [2, 4]: 5.0–8.8 fold
c-Kit inhibitory activity (in words) [3]: slightly stronger c-Kit inhibitory activity than compound 3
c-Kit potency relative to compound 9g ([3]; compared with 9g): five-times more potent than compound 9g
IC50 [3]: 0.169 µM

O=c1c2c(Nc3ccc4ccncc4c3)nccc2ccn1-c1ccc(F)cc1 [Compound 9e, 2-(4-fluorophenyl)-8-(isoquinolin-7-ylamino)-2,7-naphthyridin-1(2H)-one]
IC50 [1]: > 5 µM
IC50 [2]: > 5 µM
IC50 [3]: > 5 µM

Cc1cc2ccnc(NCc3cccc4ccccc34)c2c(=O)n1-c1ccc(OC(F)(F)F)cc1 [Compound 10q, 3-methyl-8-((naphthalen-1-ylmethyl)amino)-2-(4-(trifluoromethoxy)phenyl)-2,7-naphthyridin-1(2H)-one]
IC50 [1]: > 5 µM
IC50 [2]: > 5 µM
IC50 [3]: > 5 µM

O=c1c2c(NCc3ccnc4ccccc34)nccc2ccn1-c1ccc(F)cc1 [Compound 9k, 2-(4-fluorophenyl)-8-((quinolin-4-ylmethyl)amino)-2,7-naphthyridin-1(2H)-one]
IC50 [1]: > 5 µM
IC50 [2]: 0.238 µM
IC50 [3]: 0.0085 µM
c-Kit potency, fold more potent than compound 3 [3, 4]: 38.8 fold

Cc1cc2ccnc(NCc3ccncc3)c2c(=O)n1-c1ccc(Cl)cc1 [Compound 10k, 2-(4-chlorophenyl)-3-methyl-8-((pyridin-4-ylmethyl)amino)-2,7-naphthyridin-1(2H)-one]
IC50 [1]: > 5 µM
IC50 [2]: 0.263 µM
IC50 [3]: > 5 µM

O=c1c2c(NCc3cccc4ccccc34)nccc2ccn1-c1ccc(F)cc1 [Compound 9j, 2-(4-fluorophenyl)-8-((naphthalen-1-ylmethyl)amino)-2,7-naphthyridin-1(2H)-one]
IC50 [1]: > 5 µM
IC50 [2]: > 5 µM
IC50 [3]: > 5 µM

Cc1cccc(C)c1Nc1nccc2ccn(-c3ccc(F)cc3)c(=O)c12 [Compound 9b, 8-((2,6-dimethylphenyl)amino)-2-(4-fluorophenyl)-2,7-naphthyridin-1(2H)-one]
IC50 [1]: > 5 µM
IC50 [2]: > 5 µM
IC50 [3]: > 5 µM

Cc1cc2ccnc(NCc3ccnc4ccccc34)c2c(=O)n1-c1ccc(F)cc1F [Compound 10s, 2-(2,4-difluorophenyl)-3-methyl-8-((quinolin-4-ylmethyl)amino)-2,7-naphthyridin-1(2H)-one]
IC50 [1]: > 5 µM
IC50 [2]: 0.887 µM
IC50 [3]: > 5 µM

Cc1cc2ccnc(NCc3cccnc3)c2c(=O)n1-c1ccc(Cl)cc1 [Compound 10j, 2-(4-chlorophenyl)-3-methyl-8-((pyridin-3-ylmethyl)amino)-2,7-naphthyridin-1(2H)-one]
IC50 [1]: > 5 µM
IC50 [2]: > 5 µM
IC50 [3]: > 5 µM

O=c1c2c(Nc3c(Cl)cccc3Cl)nccc2ccn1-c1ccc(F)cc1 [Compound 9c, 8-((2,6-dichlorophenyl)amino)-2-(4-fluorophenyl)-2,7-naphthyridin-1(2H)-one]
IC50 [1]: > 5 µM
IC50 [2]: 0.691 µM
IC50 [3]: > 5 µM

Cc1cc2ccnc(NCc3ccnc4ccccc34)c2c(=O)n1-c1ccc(F)cc1 [Compound 10d, 2-(4-fluorophenyl)-3-methyl-8-((quinolin-4-ylmethyl)amino)-2,7-naphthyridin-1(2H)-one]
IC50 [1]: > 5 µM
IC50 [2]: 0.208 µM
c-Kit inhibitory activity (in words) [3]: weak c-Kit inhibitory activity
IC50 [3]: 1.61 µM

O=c1c2c(NCc3cccnc3)nccc2ccn1-c1ccc(F)cc1 [Compound 9h, 2-(4-fluorophenyl)-8-((pyridin-3-ylmethyl)amino)-2,7-naphthyridin-1(2H)-one]
IC50 [1]: > 5 µM
IC50 [2]: > 5 µM
IC50 [3]: > 5 µM

O=c1c2c(NCc3ccccc3)nccc2ccn1-c1ccc(F)cc1 [Compound 9f, 8-(benzylamino)-2-(4-fluorophenyl)-2,7-naphthyridin-1(2H)-one]
IC50 [1]: > 5 µM
IC50 [2]: > 5 µM
IC50 [3]: > 5 µM

Cc1cc2ccnc(Nc3cccnc3)c2c(=O)n1-c1ccc(Cl)cc1 [Compound 10i, 2-(4-chlorophenyl)-3-methyl-8-(pyridin-3-ylamino)-2,7-naphthyridin-1(2H)-one]
IC50 [1]: > 5 µM
IC50 [2]: > 5 µM
IC50 [3]: > 5 µM

Cc1cc2ccnc(NCc3cccnc3)c2c(=O)n1-c1ccc(OC(F)(F)F)cc1 [Compound 10n, 3-methyl-8-((pyridin-3-ylmethyl)amino)-2-(4-(trifluoromethoxy)phenyl)-2,7-naphthyridin-1(2H)-one]
IC50 [1]: > 5 µM
IC50 [2]: > 5 µM
IC50 [3]: > 5 µM

Cc1cc2ccnc(NCc3cccnc3)c2c(=O)n1-c1ccc(F)cc1 [Compound 10b, 2-(4-fluorophenyl)-3-methyl-8-((pyridin-3-ylmethyl)amino)-2,7-naphthyridin-1(2H)-one]
IC50 [1]: > 5 µM
IC50 [2]: > 5 µM
IC50 [3]: > 5 µM

O=c1c2c(Nc3ccccc3)nccc2ccn1-c1ccc(F)cc1 [Compound 9a, 2-(4-fluorophenyl)-8-(phenylamino)-2,7-naphthyridin-1(2H)-one]
IC50 [1]: > 5 µM
IC50 [2]: > 5 µM
IC50 [3]: > 5 µM

O=c1c2c(NCc3ccncc3)nccc2ccn1-c1ccc(F)cc1 [Compound 9g, 2-(4-fluorophenyl)-8-((pyridin-4-ylmethyl)amino)-2,7-naphthyridin-1(2H)-one]
IC50 [1]: > 5 µM
IC50 [2]: 0.601 µM
IC50 [3]: 0.832 µM
c-Kit potency, fold less potent than compound 3 [3, 4]: 2.5 fold

Cc1cc2ccnc(Nc3cccnc3)c2c(=O)n1-c1ccc(OC(F)(F)F)cc1 [Compound 10m, 3-methyl-8-(pyridin-3-ylamino)-2-(4-(trifluoromethoxy)phenyl)-2,7-naphthyridin-1(2H)-one]
IC50 [1]: > 5 µM
IC50 [2]: > 5 µM
IC50 [3]: > 5 µM

Nc1nccc(Oc2ccc(Nc3nccc4ccn(-c5ccc(F)cc5)c(=O)c34)cc2F)c1Cl [Compound 3, reference compound]
IC50 [1]: 0.0099 µM
IC50 [2]: 0.28 µM
IC50 [3]: 0.33 µM

Cc1cc2ccnc(NCc3ccco3)c2c(=O)n1-c1ccc(OC(F)(F)F)cc1 [Compound 10p, 8-((furan-2-ylmethyl)amino)-3-methyl-2-(4-(trifluoromethoxy)phenyl)-2,7-naphthyridin-1(2H)-one]
IC50 [1]: > 5 µM
IC50 [2]: > 5 µM
IC50 [3]: > 5 µM

Cc1cc2ccnc(NCc3ccnc4ccccc34)c2c(=O)n1-c1ccccc1 [Compound 10h, 3-methyl-2-phenyl-8-((quinolin-4-ylmethyl)amino)-2,7-naphthyridin-1(2H)-one]
IC50 [1]: > 5 µM
IC50 [2]: 1.03 µM
IC50 [3]: > 5 µM

O=c1c2c(NCc3ccco3)nccc2ccn1-c1ccc(F)cc1 [Compound 9i, 2-(4-fluorophenyl)-8-((furan-2-ylmethyl)amino)-2,7-naphthyridin-1(2H)-one]
IC50 [1]: > 5 µM
IC50 [2]: > 5 µM
IC50 [3]: > 5 µM

Cc1cc2ccnc(NCc3ccncc3)c2c(=O)n1-c1ccc(F)cc1 [Compound 10c, 2-(4-fluorophenyl)-3-methyl-8-((pyridin-4-ylmethyl)amino)-2,7-naphthyridin-1(2H)-one]
IC50 [1]: > 5 µM
IC50 [2]: > 5 µM
IC50 [3]: > 5 µM

O=c1c2c(Nc3cccnc3)nccc2ccn1-c1ccc(F)cc1 [Compound 9d, 2-(4-fluorophenyl)-8-(pyridin-3-ylamino)-2,7-naphthyridin-1(2H)-one]
IC50 [1]: > 5 µM
IC50 [2]: > 5 µM
IC50 [3]: > 5 µM

Cc1cc2ccnc(NCc3ccncc3)c2c(=O)n1-c1ccccc1 [Compound 10g, 3-methyl-2-phenyl-8-((pyridin-4-ylmethyl)amino)-2,7-naphthyridin-1(2H)-one]
IC50 [1]: > 5 µM
IC50 [2]: > 5 µM
IC50 [3]: > 5 µM
